Reference: ChEMBL document CHEMBL5528035, “Design, Synthesis, and Biological Evaluation for First GPX4 and CDK Dual Inhibitors” (J Med Chem, 2024)
The source made the active and inactive calls. The calls are words filed in the database; no cut-off is given here.

Assays:
[1] = biological target: CDK2/Cyclin A2 (Homo sapiens) (UniProt P24941+P20248); assay: Inhibition of CDK2/CyclinA2 (unknown origin) at 100 nM preincubated for 15 mins followed by substrate and ATP addition incubated for 10 mins by ADP-glo luminescent assay relative to control; format: protein-complex assay; settings: time 25.0 min
[2] = Intrinsic clearance in human liver microsomes in presence of NADPH incubated for 5 to 45 mins by LC/MS analysis; format: ADME, Microsome; settings: time 5-45 min, read-out: CLH
[3] = Half life in Sprague-Dawley rat at 10 mg/kg,iv administration measured upto 24 hrs by LC-MS/MS analysis; format: ADME, organism-based; settings: in vivo
[4] = Tmax in Sprague-Dawley rat at 10 mg/kg,iv administration measured upto 24 hrs by LC-MS/MS analysis; format: ADME, organism-based; settings: in vivo
[5] = AUC (0 to t) in Sprague-Dawley rat at 10 mg/kg,iv administration measured upto 24 hrs by LC-MS/MS analysis; format: ADME, organism-based; settings: in vivo
[6] = MRT (0 to t) in Sprague-Dawley rat at 10 mg/kg,iv administration measured upto 24 hrs by LC-MS/MS analysis; format: ADME, organism-based; settings: in vivo
CDK6/cyclin D3 = CDK6/cyclin D3 (Homo sapiens, UniProt Q00534); assay: Inhibition of CDK6/CyclinD3 (unknown origin) preincubated for 15 mins followed by substrate and ATP addition incubated for 10 mins by ADP-glo luminescent assay; format: protein-complex assay
Chain of CDK6/cyclin D3 (P30281 whole entry): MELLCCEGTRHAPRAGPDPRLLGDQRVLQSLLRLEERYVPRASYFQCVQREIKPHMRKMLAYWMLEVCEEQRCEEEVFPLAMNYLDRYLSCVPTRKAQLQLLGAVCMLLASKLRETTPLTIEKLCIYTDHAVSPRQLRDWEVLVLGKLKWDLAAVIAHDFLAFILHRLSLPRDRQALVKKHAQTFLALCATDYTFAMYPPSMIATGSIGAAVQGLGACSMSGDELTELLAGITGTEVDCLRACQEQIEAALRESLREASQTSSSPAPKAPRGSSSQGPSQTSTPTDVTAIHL
Chain of CDK6/cyclin D3 (Q00534 whole entry): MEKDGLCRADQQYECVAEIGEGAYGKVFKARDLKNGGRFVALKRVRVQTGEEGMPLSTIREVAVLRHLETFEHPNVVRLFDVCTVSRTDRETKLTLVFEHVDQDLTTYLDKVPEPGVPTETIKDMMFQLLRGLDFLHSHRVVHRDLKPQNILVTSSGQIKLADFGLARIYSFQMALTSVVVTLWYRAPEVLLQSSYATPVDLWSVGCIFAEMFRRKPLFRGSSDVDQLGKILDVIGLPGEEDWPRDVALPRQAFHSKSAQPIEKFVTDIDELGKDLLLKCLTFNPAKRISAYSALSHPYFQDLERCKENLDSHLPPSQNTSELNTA

MDA-MB-231 [7] = assay: Induction of ferroptosis in human MDA-MB-231 cells assessed as increase in intracellular lipid peroxide level incubated for 24 hrs by […] staining based confocal laser scanning microscopic analysis; format: functional, cell-based
HCT-116 [8] = assay: Induction of ferroptosis in human HCT-116 cells assessed as increase in intracellular lipid peroxide level incubated for 24 hrs by […] staining based confocal laser scanning microscopic analysis; format: functional, cell-based
MDA-MB-231 [9] = assay: Induction of ferroptosis in human MDA-MB-231 cells assessed as increase in intracellular lipid peroxide level incubated for 24 hrs by flow cytometric analysis; format: functional, cell-based
HCT-116 [10] = assay: Induction of ferroptosis in human HCT-116 cells assessed as increase in intracellular lipid peroxide level incubated for 24 hrs by flow cytometric analysis; format: functional, cell-based
HCT-116 [11] = assay: Induction of ferroptosis in human HCT-116 cells assessed as increase in intracellular ferrous ion level at 0.5 to 2 uM incubated for 24 hrs by ferroOrange probe based flow cytometric analysis; format: functional, cell-based; settings: dose 0.5-2 µM
HCT-116 [12] = assay: Induction of ferroptosis in human HCT-116 cells assessed as increase in intracellular ferrous ion level at 0.5 to 2 uM incubated for 24 hrs by ferroOrange probe based confocal laser scanning microscopic analysis; format: functional, cell-based; settings: dose 0.5-2 µM
MDA-MB-231 [13] = assay: Induction of ferroptosis in human MDA-MB-231 cells assessed as downregulation of GPX4 expression incubated for 24 hrs by Western blotting analysis; format: functional, cell-based
HCT-116 [14] = assay: Induction of cell cycle arrest in human HCT-116 cells assessed as accumulation of cells at G1 phase at 0.5 to 2 uM incubated for 24 hrs by RNase/PI staining based flow cytometric analysis; format: functional; settings: dose 0.5-2 µM
MDA-MB-231 [15] = assay: Induction of cell cycle arrest in human MDA-MB-231 cells assessed as downregulation of phoshorylated Rb at 0.5 to 2 uM incubated for 24 hrs by Western blotting analysis; format: functional, cell-based; settings: dose 0.5-2 µM
HCT-116 [16] = assay: Induction of cell cycle arrest in human HCT-116 cells assessed as downregulation of phoshorylated Rb at 0.5 to 2 uM incubated for 24 hrs by Western blotting analysis; format: functional, cell-based; settings: dose 0.5-2 µM
MDA-MB-231 [17] = assay: Induction of cell cycle arrest in human MDA-MB-231 cells assessed as downregulation of E2F1 expression at 0.5 to 2 uM incubated for 24 hrs by Western blotting analysis; format: functional, cell-based; settings: dose 0.5-2 µM
MDA-MB-231 [18] = assay: Induction of apoptosis in human MDA-MB-231 cells incubated for 24 hrs by annexin-V-FITC/PI staining based flow cytometric analysis; format: functional, cell-based
HCT-116 [19] = assay: Induction of apoptosis in human HCT-116 cells incubated for 24 hrs by annexin-V-FITC/PI staining based flow cytometric analysis; format: functional, cell-based
MDA-MB-231 [20] = assay: Induction of apoptosis in human MDA-MB-231 cells assessed as upregulation of Bax expression at 0.5 to 2 uM incubated for 24 hrs by Western blotting analysis; format: functional, cell-based; settings: dose 0.5-2 µM
HCT-116 [21] = assay: Induction of apoptosis in human HCT-116 cells assessed as downregulation of BCL-2 expression at 0.5 to 2 uM incubated for 24 hrs by Western blotting analysis; format: functional, cell-based; settings: dose 0.5-2 µM
HCT-116 [22] = assay: Induction of apoptosis in human HCT-116 cells assessed as upregulation of Bax expression at 0.5 to 2 uM incubated for 24 hrs by Western blotting analysis; format: functional, cell-based; settings: dose 0.5-2 µM
MDA-MB-231 [23] = assay: Antitumor activity against human MDA-MB-231 cells xenografted in BALB/c mouse assessed as tumor growth inhibition at 20 mg/kg,ip administrated for 21 consecutive days; format: functional; settings: read-out: TGI
[24] = Toxicity in BALB/c mouse xenografted with human MDA-MB-231 cells assessed as change in body weight at 20 mg/kg,ip administrated for 21 consecutive days; format: organism-based; settings: in vivo
[25] = Toxicity in BALB/c mouse xenografted with human MDA-MB-231 cells assessed as change in body weight at 40 mg/kg,ip administrated for 21 consecutive days; format: organism-based; settings: in vivo
[26] = Toxicity in BALB/c mouse xenografted with human MDA-MB-231 cells assessed as morphological change in heart at 20 mg/kg,ip administrated for 21 consecutive days by hematoxylin and eosin staining based analysis; format: organism-based; settings: in vivo
[27] = Toxicity in BALB/c mouse xenografted with human MDA-MB-231 cells assessed as morphological change in liver at 40 mg/kg,ip administrated for 21 consecutive days by hematoxylin and eosin staining based analysis; format: organism-based; settings: in vivo
[28] = Toxicity in BALB/c mouse xenografted with human MDA-MB-231 cells assessed as morphological change in spleen at 20 mg/kg,ip administrated for 21 consecutive days by hematoxylin and eosin staining based analysis; format: organism-based; settings: in vivo
[29] = Toxicity in BALB/c mouse xenografted with human MDA-MB-231 cells assessed as morphological change in lung at 20 mg/kg,ip administrated for 21 consecutive days by hematoxylin and eosin staining based analysis; format: organism-based; settings: in vivo
[30] = Toxicity in BALB/c mouse xenografted with human MDA-MB-231 cells assessed as morphological change in lung at 40 mg/kg,ip administrated for 21 consecutive days by hematoxylin and eosin staining based analysis; format: organism-based; settings: in vivo
MDA-MB-231 [31] = assay: Antitumor activity against human MDA-MB-231 cells xenografted in BALB/c mouse assessed as decrease in GPX4 expression at 40 mg/kg,ip administrated for 21 consecutive days by immunohistochemistry; format: functional, organism-based
MDA-MB-231 [32] = assay: Antitumor activity against human MDA-MB-231 cells xenografted in BALB/c mouse assessed as decrease in phosphorylated Rb expression at 40 mg/kg,ip administrated for 21 consecutive days by immunohistochemistry; format: functional, organism-based
MDA-MB-231 [33] = assay: cells; settings: Homo sapiens, MDA-MB-231, 48 h
Description: Antiproliferative activity against human MDA-MB-231 cells assessed as inhibition of cell growth incubated for 48 hrs by CCK-8 assay

HCT-116 [34] = assay: cells; settings: Homo sapiens, HCT-116, 48 h
Description: Antiproliferative activity against human HCT-116 cells assessed as inhibition of cell growth incubated for 48 hrs by CCK-8 assay

A549 = assay: cells; settings: Homo sapiens, A549, 48 h
Description: Antiproliferative activity against human A549 cells assessed as inhibition of cell growth incubated for 48 hrs by CCK-8 assay

SMILES: COc1ccc2c(c1)NC(=O)/C2=C1\Nc2ccccc2\C1=N/OCCCNC(=O)CCn1cc(COc2ccc(N(C(=O)CCl)C(C(=O)NCCc3ccccc3)c3cccs3)cc2Cl)nn1 (stereo unspecified)
- inhibition [1]: 10.7%
- CLint scaled [2]: 27.3 mL/min/kg
- half-life [3]: 5.4 h
- Tmax [4]: 0.8 h
- AUC(0-t) at 24 h [5]: 15700 ng·h/mL
- MRT last at 24 h [6]: 3.6 h
- IC50 (CDK6/cyclin D3): 68.1 nM
- Activity (MDA-MB-231 [7]): Dose-Dependent Effect
- Activity (HCT-116 [8]): Dose-Dependent Effect
- Activity (MDA-MB-231 [9]): Dose-Dependent Effect
- Activity (HCT-116 [10]): Dose-Dependent Effect
- Activity (HCT-116 [11]): Active
- Activity (HCT-116 [12]): Active
- Activity (MDA-MB-231 [13]): Dose-Dependent Effect
- Activity (HCT-116 [14]): Active
- Activity (MDA-MB-231 [15]): Active
- Activity (HCT-116 [16]): Active
- Activity (MDA-MB-231 [17]): Active
- Activity (MDA-MB-231 [18]): Dose-Dependent Effect
- Activity (HCT-116 [19]): Dose-Dependent Effect
- Activity (MDA-MB-231 [20]): Active
- Activity (HCT-116 [21]): Active
- Activity (HCT-116 [22]): Active
- inhibition in vivo at 20 mg/kg (MDA-MB-231 [23]): 67.8%
- Activity [24]: Non-Toxic
- Activity [25]: Non-Toxic
- Activity [26]: Non-Toxic
- Activity [27]: Non-Toxic
- Activity [28]: Non-Toxic
- Activity [29]: Non-Toxic
- Activity [30]: Non-Toxic
- Activity (MDA-MB-231 [31]): Active
- Activity (MDA-MB-231 [32]): Active
- IC50 (MDA-MB-231 [33]): 800 nM
- IC50 (HCT-116 [34]): 750 nM
- IC50 (A549): 1020 nM
